Data published in patent US8361968B2 (Takeda Pharmaceutical Company Limited, priority 2002, dated 2013).
Numbered stars: 1 amine (or outer) side, 2 acyl side, 3 side chain; on linkers, the order of the positions; unused ones are H or OH. Square brackets hold non-standard residues; d marks the D form. Peptide text beside a SMILES is read from it. * marks the point of attachment. Propanoyl(3-indol-3-yl) = O=C(CCc1c[nH]c2ccccc12)*; Diphenylacetyl = O=C(C(c1ccccc1)c1ccccc1)*; X7 = CNC(=N)NCCCC[C@H](N[*:1])C(=O)[*:2]; Phe(4-F) = N[C@@H](Cc1ccc(F)cc1)C(=O)O; Arg(Me) = CNC(=N)NCCC[C@H](N)C(=O)O; Cha = N[C@@H](CC1CCCCC1)C(=O)O; Hexanoyl = CCCCCC(=O)*; azaGly = NNC(=O)O

Experiments:
[1] = molecular target: T1, hOT7T175 (Homo sapiens, UniProt Q969F8, L364H); assay: hOT7T175 receptor binding activity: binding inhibition of Cy-5-labeled metastin (40-54) on hOT7T175-expressed CHO cells; parameters: expressed in transfected cells; host or cells: CHO cells
Experimental: Assay for hOT7T175 Receptor Binding Activity
h0T7T175-Expressed CHO cells were cultured in MEM-cc medium (nucleic acid-free) containing 10% dialyzed serum. The medium was removed and the adherent cells were washed with PBS. Then, PBS containing 5 mM EDTA was added and the cells were scraped from a flask with a cell scraper. […] To each well of a 96-Well Black Clear Bottom Plate (Applied Biosystems, Inc.), 10 μL of assay buffer containing 1% dimethylsulfoxide was added to examine total binding, 10 μL of 10 μM non-labeled peptide (having the same amino acid sequence as that of the labeled one) solution diluted with assay buffer to examine non-specific binding, and 10 μL of a test compound diluted with assay buffer to examine the binding inhibition activity of the test compound, respectively. Furthermore, 90 μL each of the cell suspension was dispensed to each well. […] The specific binding is a value obtained by subtracting the non-specific binding from the total binding.

[2] = molecular target: T1, hOT7T175; assay: Intracellular Ca ion level-increasing activity using FLIPR in hOT7T175/CHO; assay type: cell-based; parameters: expressed in transfected cells; host or cells: CHO/dhfr- cells, obtained from ATCC; details: relative, Metastin (1-54) = 1

T1 sequence (Q969F8 whole entry L364H): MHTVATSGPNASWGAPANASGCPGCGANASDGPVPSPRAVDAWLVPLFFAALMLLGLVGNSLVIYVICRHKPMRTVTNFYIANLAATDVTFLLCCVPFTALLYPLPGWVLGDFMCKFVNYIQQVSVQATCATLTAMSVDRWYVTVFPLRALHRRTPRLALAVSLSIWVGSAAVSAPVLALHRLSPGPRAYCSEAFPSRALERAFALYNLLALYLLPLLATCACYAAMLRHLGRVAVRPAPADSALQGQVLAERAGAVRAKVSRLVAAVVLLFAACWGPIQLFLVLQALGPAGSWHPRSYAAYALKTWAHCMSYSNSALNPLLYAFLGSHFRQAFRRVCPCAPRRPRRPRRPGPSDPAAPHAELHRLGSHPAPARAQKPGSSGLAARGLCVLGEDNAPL

Row | SMILES | IC50 [1] | Specific Activity (intracellular Ca ion level-increasing activity) [2]
1 | CNC(=N)NCCC[C@H](NC(=O)[C@H](CC(C)C)NC(=O)NNC(=O)[C@H](Cc1ccccc1)NC(=O)[C@H](Cc1ccccc1)NC(=O)[C@H](CO)NC(=O)[C@H](CC(N)=O)NC(=O)[C@H](Cc1ccccc1)NC(=O)[C@H](CC(N)=O)NC(=O)[C@H](N)Cc1ccc(O)cc1)C(=O)N[C@@H](Cc1ccccc1)C(N)=O [Compound No. 270, D-Tyr-Asn-Phe-Asn-Ser-Phe-Phe-AzaGly-Leu-Arg(Me)-Phe-NH2] (H-[dY]NFNSFF[azaGly]L[Arg(Me)]F-NH2) | 15 nM | 1
2 | CCCCCC(=O)N[C@@H](CC(N)=O)C(=O)N[C@@H](CO)C(=O)N[C@@H](Cc1ccccc1)C(=O)NNC(=O)N[C@@H](CC(C)C)C(=O)N[C@@H](CCCNC(=N)NC)C(=O)N[C@@H](Cc1ccccc1)C(N)=O [Compound No. 277, n-Hexanoyl-Asn-Ser-Phe-AzaGly-Leu-Arg(Me)-Phe-NH2] (Hexanoyl-NSF[azaGly]L[Arg(Me)]F-NH2) | 54 nM | 2
3 | CCCC[C@H](NC(=O)CNC(=O)[C@H](Cc1ccccc1)NC(=O)[C@H](CO)NC(=O)[C@H](CC(N)=O)NC(=O)[C@H](Cc1c[nH]c2ccccc12)NC(=O)[C@H](CC(N)=O)NC(=O)[C@@H](N)Cc1ccc(O)cc1)C(=O)N[C@@H](CCCNC(=N)N)C(=O)N[C@@H](Cc1ccccc1)C(N)=O [Compound No. 105, Tyr-Asn-Trp-Asn-Ser-Phe-Gly-Nle-Arg-Phe-NH2] | 880 nM | 1
4 | CNC(=N)NCCC[C@H](NC(=O)[C@H](CC(C)C)NC(=O)CNC(=O)[C@H](Cc1ccccc1)NC(=O)[C@H](CO)NC(=O)[C@H](CC(N)=O)NC(=O)[C@@H](Cc1c[nH]c2ccccc12)NC(=O)[C@H](CC(N)=O)NC(=O)[C@@H](N)Cc1ccc(O)cc1)C(=O)N[C@@H](Cc1ccccc1)C(N)=O [Compound No. 143, Tyr-Asn-D-Trp-Asn-Ser-Phe-Gly-Leu-Arg(Me)-Phe-NH2] | 7.7 nM | 3
5 | CC(C)C[C@H](NC(=O)CNC(=O)[C@H](Cc1ccccc1)NC(=O)[C@H](CO)NC(=O)[C@H](CC(N)=O)NC(=O)[C@H](Cc1c[nH]c2ccccc12)NC(=O)[C@H](CC(N)=O)NC(=O)[C@@H](N)Cc1ccc(O)cc1)C(=O)N[C@@H](CCCNC(=N)N)C(=O)N[C@@H](Cc1ccc(N)cc1)C(N)=O [Compound No. 131] | 120 nM | 3
6 | CC(C)C[C@H](NC(=O)CNC(=O)[C@H](Cc1ccccc1)NC(=O)[C@H](CO)NC(=O)[C@H](CC(N)=O)NC(=O)[C@H](Cc1c[nH]c2ccccc12)NC(=O)[C@H](CC(N)=O)NC(=O)[C@H](Cc1ccc(O)cc1)NC(=O)[C@H](CC(N)=O)NC(=O)[C@@H]1CCCN1C(=O)[C@@H](N)CC(C)C)C(=O)N[C@@H](CCCNC(=N)N)C(=O)N[C@@H](Cc1ccccc1)C(N)=O [Compound No. 32, reference compound] | 25 nM | 10
7 | CC(C)C[C@H](NC(=O)CNC(=O)[C@H](Cc1ccccc1)NC(=O)[C@H](CO)NC(=O)[C@H](CC(N)=O)NC(=O)[C@H](Cc1c[nH]c2ccccc12)NC(=O)[C@H](CC(N)=O)NC(=O)[C@@H](N)CC(=O)O)C(=O)N[C@@H](CCCNC(=N)N)C(=O)N[C@@H](Cc1ccccc1)C(N)=O [Compound No. 75] (H-DNWNSFGLRF-NH2) | 880 nM | 1
8 | CC[C@H](C)[C@H](NC(=O)[C@H](N)Cc1ccc(O)cc1)C(=O)N[C@@H](CC(N)=O)C(=O)N[C@@H](CO)C(=O)N[C@@H](Cc1ccccc1)C(=O)NCC(=O)N[C@@H](CC(C)C)C(=O)N[C@@H](CCCNC(=N)NC)C(=O)N[C@@H](Cc1ccccc1)C(N)=O [Compound No. 228] (H-[dY]INSFGL[Arg(Me)]F-NH2) | 40 nM | 5
9 | CC(C)C[C@H](NC(=O)CNC(=O)[C@H](Cc1ccccc1)NC(=O)[C@H](CO)NC(=O)[C@H](CC(N)=O)NC(=O)[C@H](Cc1cn(C=O)c2ccccc12)NC(=O)[C@H](CC(N)=O)NC(=O)[C@@H](N)Cc1ccc(O)cc1)C(=O)N[C@@H](CCCNC(=N)N)C(=O)N[C@@H](Cc1ccc(C#N)cc1)C(N)=O [Compound No. 78, Tyr-Asn-Trp(For)-Asn-Ser-Phe-Gly-Leu-Arg-Phe(4CN)-NH2] | 25 nM | 10
10 | CC(C)C[C@H](NC(=O)CNC(=O)[C@H](CC1CCCCC1)NC(=O)[C@H](CO)NC(=O)[C@H](CC(N)=O)NC(=O)[C@H](Cc1c[nH]c2ccccc12)NC(=O)[C@H](CC(N)=O)NC(=O)[C@@H](N)Cc1ccc(O)cc1)C(=O)N[C@@H](CCCNC(=N)N)C(=O)N[C@@H](Cc1ccccc1)C(N)=O [Compound No. 156, Tyr-Asn-Trp-Asn-Ser-Cha-Gly-Leu-Arg-Phe-NH2] (H-YNWNS[Cha]GLRF-NH2) | 49 nM | 2
11 | CNC(=N)NCCC[C@H](NC(=O)[C@H](CC(C)C)NC(=O)NNC(=O)[C@H](Cc1ccccc1)NC(=O)[C@H](CO)NC(=O)[C@H](CC(N)=O)NC(=O)[C@H](Cc1c[nH]c2ccccc12)NC(=O)[C@H](N)Cc1ccc(O)cc1)C(=O)N[C@@H](Cc1ccccc1)C(N)=O [Compound No. 222, D-Tyr-Trp-Asn-Ser-Phe-AzaGly-Leu-Arg(Me)-Phe-NH2] (H-[dY]WNSF[azaGly]L[Arg(Me)]F-NH2) | 33 nM | 5
12 | CC(C)C[C@H](NC(=O)CNC(=O)[C@H](Cc1ccccc1)NC(=O)[C@H](CO)NC(=O)[C@H](CC(N)=O)NC(=O)[C@H](Cc1c[nH]c2ccccc12)NC(=O)[C@H](CC(N)=O)NC(=O)[C@@H](N)Cc1ccc(O)cc1)C(=O)N[C@@H](CCCNC(=N)N)C(=O)N[C@@H](CC1CCCCC1)C(N)=O [Compound No. 112] (H-YNWNSFGLR[Cha]-NH2) | 370 nM | 2
13 | CNC(=N)NCCCC[C@H](NC(=O)[C@H](CC(C)C)NC(=O)CNC(=O)[C@H](Cc1ccccc1)NC(=O)[C@H](CO)NC(=O)[C@H](CC(N)=O)NC(=O)[C@H](Cc1c[nH]c2ccccc12)NC(=O)[C@H](CC(N)=O)NC(=O)[C@@H](N)Cc1ccc(O)cc1)C(=O)N[C@@H](Cc1ccccc1)C(N)=O [Compound No. 312] (H-YNWNSFGL[X7]F-NH2) | 100 nM | 3
14 | CC(C)C[C@H](NC(=O)CNC(=O)[C@H](Cc1ccccc1)NC(=O)[C@H](CO)NC(=O)[C@H](CC(N)=O)NC(=O)CCc1c[nH]c2ccccc12)C(=O)N[C@@H](CCCNC(=N)N)C(=O)N[C@@H](Cc1ccccc1)C(N)=O [Compound No. 114, 3-(3-Indolyl)propionyl-Asn-Ser-Phe-Gly-Leu-Arg-Phe-NH2] ({Propanoyl(3-indol-3-yl)}-NSFGLRF-NH2) | 550 nM | 3
15 | CC(C)C[C@H](NC(=O)CNC(=O)[C@H](Cc1ccccc1)NC(=O)[C@H](CO)NC(=O)[C@H](CC(N)=O)NC(=O)[C@H](Cc1c[nH]c2ccccc12)NC(=O)[C@H](CC(N)=O)NC(=O)[C@@H](N)Cc1ccc(O)cc1)C(=O)N[C@@H](CCCCNC(=N)N)C(=O)N[C@@H](Cc1ccccc1)C(N)=O [Compound No. 97] | 370 nM | 10
16 | CNC(=N)NCCC[C@H](NC(=O)[C@H](CC(C)C)NC(=O)NNC(=O)[C@H](Cc1ccccc1)NC(=O)[C@H](CO)NC(=O)[C@H](CC(N)=O)NC(=O)[C@@H](Cc1c[nH]c2ccccc12)NC(=O)[C@H](CC(N)=O)NC(=O)[C@H](N)Cc1ccc(O)cc1)C(=O)N[C@@H](Cc1ccccc1)C(N)=O [Compound No. 236, D-Tyr-Asn-D-Trp-Asn-Ser-Phe-AzaGly-Leu-Arg(Me)-Phe-NH2] | 42 nM | 2
17 | CC(C)C[C@H](NC(=O)[C@H](CO)NC(=O)[C@H](Cc1ccccc1)NC(=O)[C@H](CO)NC(=O)[C@H](CC(N)=O)NC(=O)[C@H](Cc1c[nH]c2ccccc12)NC(=O)[C@H](CC(N)=O)NC(=O)[C@@H](N)Cc1ccc(O)cc1)C(=O)N[C@@H](CCCNC(=N)N)C(=O)N[C@@H](Cc1ccccc1)C(N)=O [Compound No. 101] (H-YNWNSFSLRF-NH2) | 100 nM | 10
18 | CNC(=N)NCCC[C@H](NC(=O)[C@H](CC(C)C)NC(=O)NNC(=O)[C@H](Cc1ccccc1)NC(=O)[C@H](CO)NC(=O)[C@H](CC(N)=O)NC(=O)[C@@H](NC(=O)[C@@H](CC(N)=O)NC(=O)[C@H](N)Cc1ccc(O)cc1)[C@@H](C)O)C(=O)N[C@@H](Cc1ccc(F)cc1)C(N)=O [Compound No. 316, D-Tyr-D-Asn-Thr-Asn-Ser-Phe-AzaGly-Leu-Arg(Me)-Phe(4F)-NH2] (H-[dY][dN]TNSF[azaGly]L[Arg(Me)][Phe(4-F)]-NH2) | 26 nM | 1
19 | CNC(=N)NCCC[C@H](NC(=O)[C@H](CC(C)C)NC(=O)NNC(=O)[C@H](Cc1ccccc1)NC(=O)[C@H](CO)NC(=O)[C@H](CC(N)=O)NC(=O)C(c1ccccc1)c1ccccc1)C(=O)N[C@@H](Cc1ccccc1)C(N)=O [Compound No. 268, Diphenylacetyl-Asn-Ser-Phe-AzaGly-Leu-Arg(Me)-Phe-NH2] (Diphenylacetyl-NSF[azaGly]L[Arg(Me)]F-NH2) | 550 nM | 1
